Experimental data: patent US4146721A, “Pyrazol-4-acetic acid compounds” (priority 1970, dated 1979)
Like-named read-outs stand apart in the source and are kept apart here.

How the values were obtained:
rat = assay: Lowering of the normal temperature of the rat; assay type: in vivo; settings: for ED (15 degC temperature lowering): ip, read-out: dose i.p. that lowered the normal temperature of the rat by 15.° C.
Procedure: In addition thereto, the new pyrazole compounds of the invention effect a lowering of the temperature in mammalians: 60 mg/kg of compound A and 25 mg/kg of compound L, administered i.p. to the rat lowered the normal temperature of the rat by 15.° C.

[1] = test system: Carrageenin edema of the rear paw of the rat; assay: Carrageenin edema of the rear paw (antiphlogistic effect); assay type: in vivo; settings: for Retardation of the Carrageenin Edema, Relative Effect: Phenylbutazon = 1.0; for ED40: read-out: Retardation of the Carrageenin Edema by 40% by mg/kg oral
[2] = test system: ultraviolet erythema of the skin on the back of the guinea pig; assay: Ultraviolet erythema of the skin on the back (antiphlogistic effect); assay type: in vivo; settings: for ED50: Cavia porcellus, read-out: Retardation of the UV-Erythema by 50% by mg/kg oral; for Retardation of the UV-Erythema, Relative Effect: Phenylbutazon = 1.0
in vivo = settings: mouse, ip
Procedure: (§2) ^3) Dose, at which 50% of the animals died within 72 hours after
administration of the substance

mouse [3] = assay: Analgesic effect: delay in the defense reaction of the mouse upon thermal stimulation of the root of the tail by a heat beam; assay type: in vivo; settings: oral; for ED20 / ED40: Mus musculus; for ED20: mean delay in defense reaction by 20% during 2 hours; for ED40: mean delay in defense reaction by 40% during 2 hours; for ED20 Relative / ED40 Relative: relative to aminophenazone
Procedure: (§1) The analgesic effect is measured as the mean delay in the defense reaction of the mouse by 20% (ED20) and 40% (ED40) during 2 hours upon thermal stimulation of the root of the tail by a heat beam relative to aminophenazone.

[4] = as above; assay type: in vivo; settings: mouse, in vivo; LD5 I.P. / ED40 oral; read-out: Therapeutic Index LD5/ED40
Procedure: as §1

mouse [5] = settings: Table II; I.P.
Procedure: as §2
administration of the substance

[6] = cited from earlier work
[7] = rat, lowering by 15.° C. (so in the source)
[8] = rat, oral, dose for 40% retardation
[9] = guinea pig, oral, dose for 50% retardation
[10] = Toxicity LD50 after a single dose in the mouse, Table I, i.p., 50% of the animals died within 72 hours

**Q.** With `O=C(O)Cc1c(-c2ccccc2)nn(-c2ccccc2)c1-c1ccccc1` [A, 1,3,5-triphenyl-pyrazol-4-acetic acid] as the compound, how does the “lowering of the normal temperature of the rat” value (rat; 60 mg/kg i.p.) read?
**A.** 15. ° C.

**Q.** What about the ED (15 degC temperature lowering) (rat; Rattus norvegicus) of the same compound?
**A.** 60 mg/kg

**Q.** What about the “Retardation of the Carrageenin Edema, Relative Effect” value ([1]; rat, oral) of the same compound?
**A.** 6.0

**Q.** What about the ED40 ([1]; Rattus norvegicus, po) of the same compound?
**A.** 5 mg/kg

**Q.** What about the ED50 ([2]; po) of the same compound?
**A.** 3 mg/kg

**Q.** What about the “Retardation of the UV-Erythema, Relative Effect” value ([2]; guinea pig, oral) of the same compound?
**A.** 5.3

**Q.** What about the LD50 at 72 h (in vivo) of the same compound?
**A.** 312 mg/kg

**Q.** Which results are given for `Cc1c(N(C)C)c(=O)n(-c2ccccc2)n1C` [Aminophenazone, reference compound]?
**A.** ED (15 degC temperature lowering) (rat; [7]): 70 mg/kg; ED20 (mouse [3]): 50 mg/kg; ED40 (mouse [3]): 140 mg/kg; selectivity ratio [4]: 1.9; LD50 at 72 h (in vivo): 330 mg/kg; LD5 (mouse [5]): 270 mg/kg

**Q.** Which “Retardation of the Carrageenin Edema, Relative Effect” value ([1]; rat, oral) does the source give for `O=C(O)Cc1c(-c2ccco2)nn(-c2ccccc2)c1-c1ccco1` [B, 1-phenyl-3,5-di-(2-furyl)-pyrazol-4-acetic acid] here?
**A.** 3.0

**Q.** What about the ED40 [1, 8] of the same compound?
**A.** 10 mg/kg

**Q.** What about the ED50 [2, 9] of the same compound?
**A.** 1.5 mg/kg

**Q.** And the “Retardation of the UV-Erythema, Relative Effect” value ([2]; guinea pig, oral)?
**A.** 10.7

**Q.** And the ED20 (mouse [3])?
**A.** 10 mg/kg

**Q.** And the ED40 (mouse [3])?
**A.** 50 mg/kg

**Q.** And the “ED20 Relative” value (mouse [3])?
**A.** 5.0

**Q.** And the “ED40 Relative” value (mouse [3])?
**A.** 2.8

**Q.** What about the selectivity ratio [4] of the same compound?
**A.** 3.8

**Q.** What about the LD50 at 72 h (in vivo; LD50, Table II, I.P.) of the same compound?
**A.** 373 mg/kg

**Q.** What about the LD50 at 72 h (in vivo; [10]) of the same compound?
**A.** 370 mg/kg

**Q.** What about the LD5 (mouse [5]) of the same compound?
**A.** 190 mg/kg

**Q.** Which “Retardation of the Carrageenin Edema, Relative Effect” value ([1]; rat, oral) does the source give for `O=C(O)Cc1c(-c2ccccc2)nn(-c2cccnc2)c1-c1ccccc1` [C, 3,5-diphenyl-1-(3-pyridyl)-pyrazol-4-acetic acid] here?
**A.** 1.5

**Q.** What about the ED40 [1, 8] of the same compound?
**A.** 20 mg/kg

**Q.** And the ED50 [2, 9]?
**A.** 2.5 mg/kg

**Q.** What about the “Retardation of the UV-Erythema, Relative Effect” value ([2]; guinea pig, oral) of the same compound?
**A.** 6.4

**Q.** And the LD50 at 72 h (in vivo; [10])?
**A.** 1150 mg/kg

**Q.** With `O=C(O)Cc1cn(-c2ccccc2)nc1-c1ccc(Cl)cc1` [D, 1-phenyl-3-(p-chlorophenyl)-pyrazol-4-acetic acid] as the compound, how does the ED40 [1, 8] read?
**A.** 2.5 mg/kg

**Q.** What about the ED50 [2, 9] of the same compound?
**A.** 3 mg/kg

**Q.** Which results are given for `CCCCn1nc(C)c(CC(=O)O)c1C` [E, 3,5-dimethyl-1-n-butyl-pyrazol-4-acetic acid]?
**A.** Retardation of the Carrageenin Edema, Relative Effect ([1]; rat, oral): 0.6; ED40 [1, 8]: 50 mg/kg; LD50 at 72 h (in vivo; [10]): 1400 mg/kg

**Q.** What does the source list for `COc1ccc(-n2nc(C)c(CC(=O)O)c2C)cc1` [F, 3,5-dimethyl-1-(p-methoxyphenyl)-pyrazol-4-acetic acid]?
**A.** Retardation of the Carrageenin Edema, Relative Effect ([1]; rat, oral): 0.6; ED40 [1, 8]: 50 mg/kg; LD50 at 72 h (in vivo; [10]): 1000 mg/kg

**Q.** With `Cc1nn(-c2ccccc2)c(-c2ccccc2)c1CC(=O)O` [G, 3-methyl-1,5-diphenyl-pyrazol-4-acetic acid] as the compound, how does the ED50 [2, 9] read?
**A.** 20 mg/kg

**Q.** What about the “Retardation of the UV-Erythema, Relative Effect” value ([2]; guinea pig, oral) of the same compound?
**A.** 0.8

**Q.** And the LD50 at 72 h (in vivo; [10])?
**A.** 500 mg/kg

**Q.** With `CC(C(=O)O)c1c(-c2ccccc2)nn(-c2ccccc2)c1-c1ccccc1` (stereo not drawn) [H, α-methyl-1,3,5-triphenyl-pyrazol-4-acetic acid] as the compound, how does the “Retardation of the Carrageenin Edema, Relative Effect” value ([1]; rat, oral) read?
**A.** 1.0

**Q.** And the ED40 [1, 8]?
**A.** 30 mg/kg

**Q.** And the ED50 [2, 9]?
**A.** 5 mg/kg

**Q.** And the “Retardation of the UV-Erythema, Relative Effect” value ([2]; guinea pig, oral)?
**A.** 3.2

**Q.** What about the LD50 at 72 h (in vivo; [10]) of the same compound?
**A.** 199 mg/kg

**Q.** Which results are given for `O=C(O)Cc1cnn(-c2ccccc2)c1-c1ccc(Cl)cc1` [I, 1-phenyl-5-(p-chlorophenyl)-pyrazol-4-acetic acid]?
**A.** ED20 (mouse [3]): 50 mg/kg; ED40 (mouse [3]): 70 mg/kg; ED20 Relative (mouse [3]): 1.0; ED40 Relative (mouse [3]): 2.0; selectivity ratio [4]: 2.6; LD50 at 72 h (in vivo; LD50, Table II, I.P.): 279 mg/kg; LD5 (mouse [5]): 180 mg/kg

**Q.** What does the source list for `COc1ccc2c(c1)c(CC(=O)O)c(C)n2C(=O)c1ccc(Cl)cc1` [Indomethacin, 2-methyl-5-methoxy-1-(p-chlorobenzoyl)-indol-3-acetic acid, reference compound]?
**A.** Retardation of the Carrageenin Edema, Relative Effect ([1]; rat, oral): 7.5; ED40 ([1]; Rattus norvegicus, po): 4 mg/kg; side effects ([6]; Chem. Eng. News 46 (1968)): many undesirable side effects; antiphlogistic, analgesic and antipyretic effectiveness compared with 4-n-butyl-1,2-diphenyl-3,5-dioxopyracoline ([6]; J. Am. Chem. So. 85, 488 (1963)): surpassing in this respect the effectiveness; ED50 ([2]; po): 20 mg/kg; Retardation of the UV-Erythema, Relative Effect ([2]; guinea pig, oral): 0.8; LD50 at 72 h (in vivo): 45 mg/kg

**Q.** Which ED20 (mouse [3]) does the source give for `CCCCn1nc(-c2ccccc2)c(CC(=O)O)c1-c1ccccc1` [K, 1-n-butyl-3,5-diphenyl-pyrazol-4-acetic acid] here?
**A.** 20 mg/kg

**Q.** And the ED40 (mouse [3])?
**A.** 80 mg/kg

**Q.** And the “ED20 Relative” value (mouse [3])?
**A.** 2.5

**Q.** What about the “ED40 Relative” value (mouse [3]) of the same compound?
**A.** 1.8

**Q.** And the selectivity ratio [4]?
**A.** 4.5

**Q.** What about the LD50 at 72 h (in vivo; LD50, Table II, I.P.) of the same compound?
**A.** 430 mg/kg

**Q.** What about the LD5 (mouse [5]) of the same compound?
**A.** 360 mg/kg

**Q.** With `O=C(O)Cc1c(-c2ccccc2)nn(-c2ccc(Cl)cc2)c1-c1ccccc1` [L, 3,5-diphenyl-1-(p-chlorophenyl)-pyrazol-4-acetic acid] as the compound, how does the lowering of the normal temperature of the rat (rat; 25 mg/kg i.p.) read?
**A.** 1.5 ° C

**Q.** And the ED (15 degC temperature lowering) (rat; [7])?
**A.** 25 mg/kg

**Q.** And the ED20 (mouse [3])?
**A.** 15 mg/kg

**Q.** What about the ED40 (mouse [3]) of the same compound?
**A.** 55 mg/kg

**Q.** And the “ED20 Relative” value (mouse [3])?
**A.** 3.3

**Q.** What about the “ED40 Relative” value (mouse [3]) of the same compound?
**A.** 2.5

**Q.** What about the LD50 at 72 h (in vivo; LD50, Table II, I.P.) of the same compound?
**A.** ~80 mg/kg

**Q.** What does the source list for `O=C(O)Cc1c(-c2ccc(Cl)cc2)nn(-c2ccccc2)c1-c1ccc(Cl)cc1` [M, 1-phenyl-3,5-bis-(p-chlorophenyl)-pyrazol-4-acetic acid]?
**A.** ED20 (mouse [3]): 7 mg/kg; ED40 (mouse [3]): 20 mg/kg; ED20 Relative (mouse [3]): 7.1; ED40 Relative (mouse [3]): 7.0; selectivity ratio [4]: 1.9; LD50 at 72 h (in vivo; LD50, Table II, I.P.): 51 mg/kg; LD5 (mouse [5]): 38 mg/kg

**Q.** With `COc1cccc(-c2nn(-c3ccccc3)c(-c3cccc(OC)c3)c2CC(=O)O)c1` [N, 1-phenyl-3,5-bis-(m-methoxyphenyl)-pyrazol-4-acetic acid] as the compound, how does the ED20 (mouse [3]) read?
**A.** 30 mg/kg

**Q.** And the ED40 (mouse [3])?
**A.** 55 mg/kg

**Q.** And the “ED20 Relative” value (mouse [3])?
**A.** 1.7

**Q.** And the “ED40 Relative” value (mouse [3])?
**A.** 2.5

**Q.** What about the selectivity ratio [4] of the same compound?
**A.** 3.6

**Q.** What about the LD50 at 72 h (in vivo; LD50, Table II, I.P.) of the same compound?
**A.** 312 mg/kg

**Q.** And the LD5 (mouse [5])?
**A.** 200 mg/kg

**Q.** What does the source list for `CCOC(=O)Cc1c(-c2ccccc2)nn(-c2cccc(C(F)(F)F)c2)c1-c1ccccc1` [O, 3,5-diphenyl-1-(α,α,α-trifluoro-m-tolyl)-pyrazol-4-acetic acid-ethyl ester]?
**A.** ED20 (mouse [3]): 50 mg/kg; ED40 (mouse [3]): 70 mg/kg; ED20 Relative (mouse [3]): 1.0; ED40 Relative (mouse [3]): 2.0

**Q.** Which results are given for `Cc1nn(-c2ccccc2)c(C)c1CC(N)=O` [P, 3,5-dimethyl-1-phenyl-pyrazol-4-acetamide]?
**A.** ED20 (mouse [3]): 50 mg/kg; ED40 (mouse [3]): 150 mg/kg; ED20 Relative (mouse [3]): 1.0; ED40 Relative (mouse [3]): 0.9; selectivity ratio [4]: 3.3; LD50 at 72 h (in vivo; LD50, Table II, I.P.): 500 mg/kg; LD5 (mouse [5]): 500 mg/kg

**Q.** Which ED40 [1, 8] does the source give for `CCCCC1C(=O)N(c2ccccc2)N(c2ccccc2)C1=O` [Phenylbutazon, reference compound] here?
**A.** 30 mg/kg

**Q.** What about the ED50 [2, 9] of the same compound?
**A.** 16 mg/kg

**Q.** And the ED20 (mouse [3])?
**A.** 150 mg/kg

**Q.** For `Cc1nn(-c2ccccc2)c(C)c1CC#N` [Q, 3,5-dimethyl-1-phenyl-pyrazol-4-acetonitrile], which ED20 (mouse [3]) is on record?
**A.** 20 mg/kg

**Q.** What about the ED40 (mouse [3]) of the same compound?
**A.** 40 mg/kg

**Q.** What about the “ED20 Relative” value (mouse [3]) of the same compound?
**A.** 2.5

**Q.** And the “ED40 Relative” value (mouse [3])?
**A.** 3.5

**Q.** Which results are given for `COc1ccc(-c2nn(-c3ccccc3)cc2CC#N)cc1` [R, 1-phenyl-3-(p-methoxyphenyl)-pyrazol-4-acetonitrile]?
**A.** ED20 (mouse [3]): 50 mg/kg; ED40 (mouse [3]): 80 mg/kg; ED20 Relative (mouse [3]): 1.0; ED40 Relative (mouse [3]): 1.8
